Measurements from paper PMC10985088, “Synthesis and biological evaluation of echinomycin analogues as potential colon cancer agent” (Scientific Reports, 2024).
Where two headings read alike, the source gives them in different places.

What was measured:
[1] = parameters: method as in PMID 2737217; conditions: doses of 60 and 120 μg/m^2; cited from earlier work
[2] = Investigation of maximum tolerated dose (body weight of mice); format: in vivo, mouse; conditions: 14 days
Protocol: (§1) Toxicity Body weight change is an indicator of systemic toxicity. Accordingly, the body weights of mice intraperitoneally treated with different doses (0.04 and 0.4 µg/mouse) of either 1 or 3 were measured (Fig. S1). […] A blood hematological examination (including nineteen parameters) was also conducted on these mice on Day 14 (Fig. S2). There were no significant changes in almost any of the parameters in the mice treated with either 1 or 3 at doses of 0.04 or 0.4 µg/mouse.

[3] = tested on: HIF-1α-mediated transcription; test: HRE reporter gene assay in SW620 cells overexpressing HIF-1α; format: cell-based, human; conditions: SW620 transiently overexpressing HIF-1α, 16 h
Source text: Echinomycin is known to inhibit the HIF-1 pathway by inhibiting the binding of HIF-1α to HRE[15],[21],[22]. The ability of 3 to inhibit HIF-1α-mediated transcription was investigated by using an HRE reporter gene assay in SW620 cells transiently overexpressing HIF-1α.
Figure 5 Effect of echinomycin (1), 2 and 3 on HIF-1α-dependent transcription in SW620 cells. SW620 cells were transiently transfected with empty vector pCI-neo-3 × FLAG or HIF-1α expression vector pCI-neo-3 × FLAG-HIF-1α, together with pGL3-5 × HRE-Luc and pGL4.75 [hRluc/CMV]. One day after transfection, echinomycin (1), 2, or 3 was added to the cell culture media and incubated for an additional 16 h. The cells were lysed, and a dual luciferase assay was performed. Firefly luciferase activity was normalized to Renilla luciferase activity, and the data are presented as fold induction relative to the values obtained in cells DMSO-treated cells transfected with empty vector. The error bars represent standard deviations (n = 3). *P < 0.05 and **P < 0.01 compared to DMSO-treated cells transfected with HIF-1α (Student’s test).
Basically, the assay was performed using methods previously reported by our group. […]

[4] = Hepatic microsomal stability assay, mouse; format: in vitro ADME; conditions: microsomes, 1 μM, 0.2 mg/mL microsomes, 37 °C, 30 min
Protocol: Before investigating the in vivo efficacy of 3, its metabolic stability was evaluated by treatment with human or mouse liver microsomes at 37 °C for 30 min, and the remaining analogues were analyzed by LC–MS/MS (Table 3). […] This means that approximately 67% of 3 was unaffected by human liver microsomes.
Basically, the analysis was performed using methods previously reported. Disappearance of the parent compound over time was measured by using the amount of drug at time zero as a reference. After 5 min of preincubation, 1 mM NADPH (final concentration, the same applies to the following, NADPH( +)) or 0.1 M phosphate buffer (pH 7.4, NADPH(−))) was added to a mixture containing 1 μM of the test compound, 0.2 mg/mL of human or mouse liver microsomes (Sekisui XenoTech LLC (Kansas City, KS)), 1 mM EDTA and 0.1 M phosphate buffer (pH 7.4) and incubated at 37 °C for 30 min by rotation at 60 rpm. An aliquot of 50 μL of the incubation mixture was sampled and added to 250 μL of chilled acetonitrile/internal standard (IS). After centrifuging for 15 min at 3150×g (4 °C), the supernatants were analyzed by LC–MS/MS. Hepatic microsomal stability (mL/min/kg, CLint) was calculated according to the previous report, using 48.8 and 45.4 mg MS protein/g liver and 25.7 and 87.5 g liver/kg body weight as scaling factors for human and mouse, respectively.
Basically, the analysis was performed using methods previously reported. An LC-MS8060 instrument equipped with a Shimadzu Nexera series LC system (Shimadzu, Kyoto, Japan) was used. All compounds were analyzed in multi-reaction monitoring mode under electron spray ionization conditions. The analytical column used was a […] C18 MGIII (3 μm × 2.0 mmID × 35 mm; OSAKA SODA, Osaka, Japan) at 50 °C. The gradient mobile phase consisted of 0.1% formic acid in water (mobile phase A,) and 0.1% formic acid in acetonitrile (mobile phase B) at a total flow rate of 1 mL/min. The initial mobile phase composition was 10% B, which was held constant for 0.2 min, increased in a linear fashion to 90% B over 1 min, then held constant for 0.8 min, and finally brought back to the initial condition of 10% B over 0.01 min and re-equilibrated for 1 min. The transitions (precursor ion > product ion) of echinomycin, 3 and IS (methyl testosterone) are 1101.45 > 1053.5 (positive), 1083.5 > 523.95 (negative), and 303.1 > 109.1 (positive), respectively.

[5] = Serum biochemistry / blood examination of treated mice; format: in vivo; conditions: 0.4 µg/mouse i.p., Day 14
Protocol: as §1
Male BALB/c mice (7 weeks old) were purchased from Charles River Laboratories Japan, Inc. Each compound was intraperitoneally injected daily for 14 days. […] Serum was collected by centrifuging blood at 5000 rpm for 10 min. Biochemistry was performed in Oriental Yeast Co., Ltd, Japan.

For `CS[C@H]1SC[C@H]2C(=O)N(C)[C@@H](C(C)C)C(=O)OC[C@@H](NC(=O)c3cnc4ccccc4n3)C(=O)N[C@@H](C)C(=O)N(C)[C@@H]1C(=O)N(C)[C@@H](C(C)C)C(=O)OC[C@@H](NC(=O)c1cnc3ccccc3n1)C(=O)N[C@@H](C)C(=O)N2C` [Compound 1, Echinomycin], the “toxicity at lower doses in human clinical trials” value [1] is listed as “no observed toxicity”, the body weight ([2]; i.p. 0.04 and 0.4 µg/mouse, daily) is listed as “did not differ greatly from those of the control” and the “dose up to which no significant toxicity is shown” value ([2]; i.p. daily, body weight and blood examination) is listed as at least 0.04 µg/mouse. For the same compound, the “HIF-1α-induced HRE reporter activity” value [3] was “inhibited”, the CLint scaled ([4]; NADPH(+), read-out: Metabolic stability (CLint) Mouse NADPH(+)) was under 69.8 mL/min/kg and the CLint scaled ([4]; NADPH(−), read-out: Metabolic stability (CLint) Mouse NADPH(−)) was under 69.8 mL/min/kg. The “alanine aminotransferase (ALT)” value [5] was “increase”, the “aspartate aminotransferase (AST)” value [5] was “increase” and the “lactate dehydrogenase (LDH)” value [5] was “increase”. The “total bilirubin (T-BIL)” value [5] was “decrease”.
